Results from US10272135B2, “Apolipoprotein O and fragments thereof for inducing apoptosis in a cancerous cell” (INSERM (INSTITUT NATIONAL DE LA SANTÉ ET DE LA RECHERCHE …, priority 2014, dated 2019).

Key:
Assay type in all cases: cell-based
H9c2 cardiac myoblasts [1] = assay: Measurement of O2 consumption (Oroboros Oxygraph-2k) in cardiac myoblasts; conditions: for oxygen consumption: cells treated with 1 μM antimycin or 1.5 μg/ml oligomycin (FIG. 4B)
From the text: After ethical committee approval, all patients in this study gave written consent for sample collection and molecular analysis prior to inclusion. Patients were carefully selected by physicians from the Department of Cardiology, Toulouse University Hospital, prior to coronary by-pass surgery. Bioinformatics. Microarray expression data from human heart samples were downloaded from the GEO repository (GSE1145). This series consisted of 107 myocardial samples collected from patients undergoing cardiac transplantation whose failure arises from different etiologies (e.g. idiopathic dilated cardiomyopathy, ischemic cardiomyopathy, valvular cardiomyopathy, and hypertrophic cardiomyopathy) and from “normal” organ donors whose hearts cannot be used for transplants. Arrays were intensity normalized and hierarchical clustering (average group linkage, Pearson correlation, threshold r=0.8) was applied to identify groups of co-expressed genes. ApoO expression levels were plotted for the 107 human hearts tested and used to define relevant molecular pathways using both Toppgene and Ingenuity Pathway Analysis (Ingenuity systems, Redwood City, Calif., USA). ApoO subcellular localization was predicted using Mitopred, mitoprot and YLoc. Animals: All animal Studies followed the INSERM Institute Animal Facility guidelines and were approved by the animal care committees of the INSERM I2MC UMR 1048. All animal procedures were performed according to the guidelines of the French Ministry of Agriculture. Animals were housed at the Toulouse I2MC animal facility in a room lit 12 h per day (6 AM-6 PM) at an ambient temperature of 22+/−1° C. Construction of ApoO Expression Vectors To overexpress human ApoO (pTT-ApoO), the ApoO coding sequence was amplified using primers hApoO5BamPTT (SEQ ID NO: 2) and hApoO3BamPTT (SEQ ID NO: 3) and cloned into the BamH1 site of pTT expression vector. pSNAP-ApoO was generated by PCR amplification of pTT-ApoO using primers SnapApoEcorV-F (SEQ ID NO: 4) and SnapApoEcorV-R (SEQ ID NO: 5) and cloned into the EcoRV site of pSNAP-Tag® (Ozyme, Saint-Quentin-en-Yvelines, France). pGEX2T-ApoO was constructed by PCR amplification of pTT-ApoO using hApoOpGEX1FBam (SEQ ID NO: 6) and hApoOpGEX1RSma (SEQ ID NO: 7) and cloned into the Bam HI/Sma I site of pGEX2T (Promega, Charbonnières-les-Bains). All primers used in this work were synthesized by Eurogentec France (Angers). All restriction enzymes used were from New England Biolabs (Ozyme, Saint-Quentin-en-Yvelines). All ApoO sequences within the expression vectors were verified by DNA double strand sequencing using ABI PRISM®BigDye™ Terminator version 3.1 Ready reaction cycle sequencing kit (Life Technologies SAS, Villebon sur Yvette) and loaded on an ABI 3130XL DNA sequencing instrument (Life Technologies SAS, Villebon sur Yvette). Cell Culture and Tranfection of H9C2 Cardic Myoblasts H9c2 were obtained from the European Collection of Cell Cultures (Salisbury, England). H9c2 cells were cultured in Dulbecco's modified Eagle medium (Life Technologies SAS, Villebon sur Yvette) adjusted to contain 1.5 g/liter sodium bicarbonate and supplemented with antibiotic-antimycotic solution (Life Technologies SAS, Villebon sur Yvette) and 10% fetal bovine serum (FBS, AbCys s.a., Paris). Cells were plated on 10-cm diameter tissue culture dish and grown in a 5% CO2 incubator at 37° C. with saturating humidity with medium changes every 2 days. […]

H9c2 cardiac myoblasts [2] = assay: Lipid profiling (FAME, diglycerides, triglycerides, BODIPY-palmitate) in cardiac myoblasts; conditions: ApoO cells treated with both palmitate and oleate (FIG. 11a-b)
From the text: (§1) After ethical committee approval, all patients in this study gave written consent for sample collection and molecular analysis prior to inclusion. Patients were carefully selected by physicians from the Department of Cardiology, Toulouse University Hospital, prior to coronary by-pass surgery. Bioinformatics. Microarray expression data from human heart samples were downloaded from the GEO repository (GSE1145). This series consisted of 107 myocardial samples collected from patients undergoing cardiac transplantation whose failure arises from different etiologies (e.g. idiopathic dilated cardiomyopathy, ischemic cardiomyopathy, valvular cardiomyopathy, and hypertrophic cardiomyopathy) and from “normal” organ donors whose hearts cannot be used for transplants. Arrays were intensity normalized and hierarchical clustering (average group linkage, Pearson correlation, threshold r=0.8) was applied to identify groups of co-expressed genes. ApoO expression levels were plotted for the 107 human hearts tested and used to define relevant molecular pathways using both Toppgene and Ingenuity Pathway Analysis (Ingenuity systems, Redwood City, Calif., USA). ApoO subcellular localization was predicted using Mitopred, mitoprot and YLoc. Animals: All animal Studies followed the INSERM Institute Animal Facility guidelines and were approved by the animal care committees of the INSERM I2MC UMR 1048. All animal procedures were performed according to the guidelines of the French Ministry of Agriculture. Animals were housed at the Toulouse I2MC animal facility in a room lit 12 h per day (6 AM-6 PM) at an ambient temperature of 22+/−1° C. […] All ApoO sequences within the expression vectors were verified by DNA double strand sequencing using ABI PRISM®BigDye™ Terminator version 3.1 Ready reaction cycle sequencing kit (Life Technologies SAS, Villebon sur Yvette) and loaded on an ABI 3130XL DNA sequencing instrument (Life Technologies SAS, Villebon sur Yvette). […]

Caspase-3 = Caspase-3 enzymatic activity in H9c2 cardiac myoblasts; conditions: ApoO cells treated with both palmitate and oleate (FIG. 11c)
From the text: as §1

[3] = system: long-chain acyl-CoA synthetase (ACSL); assay: Acyl-CoA synthetase activity in cardiac myoblasts; conditions: ApoO cells treated with 5 μM triacsin C
From the text: After ethical committee approval, all patients in this study gave written consent for sample collection and molecular analysis prior to inclusion. Patients were carefully selected by physicians from the Department of Cardiology, Toulouse University Hospital, prior to coronary by-pass surgery. Bioinformatics. Microarray expression data from human heart samples were downloaded from the GEO repository (GSE1145). This series consisted of 107 myocardial samples collected from patients undergoing cardiac transplantation whose failure arises from different etiologies (e.g. idiopathic dilated cardiomyopathy, ischemic cardiomyopathy, valvular cardiomyopathy, and hypertrophic cardiomyopathy) and from “normal” organ donors whose hearts cannot be used for transplants. Arrays were intensity normalized and hierarchical clustering (average group linkage, Pearson correlation, threshold r=0.8) was applied to identify groups of co-expressed genes. […] All ApoO sequences within the expression vectors were verified by DNA double strand sequencing using ABI PRISM®BigDye™ Terminator version 3.1 Ready reaction cycle sequencing kit (Life Technologies SAS, Villebon sur Yvette) and loaded on an ABI 3130XL DNA sequencing instrument (Life Technologies SAS, Villebon sur Yvette). […]

## N#CC(C#N)=NNc1cccc(Cl)c1 [CCCP, carbonyl cyanide m-chlorophenyl hydrazone]
H9c2 cardiac myoblasts [1]; ApoO cells, addition of uncoupler 2 μM CCCP (FIG. 4B)
  increase in oxygen consumption: 2 fold

## CCCCCCCC/C=C\CCCCCCCC(=O)O [oleate, reference compound]
H9c2 cardiac myoblasts [2]
  decrease in diglyceride/triglyceride ratio: 12 fold
Caspase-3
  decrease in Caspase-3 activity: 2 fold

## CC[C@H]1/C=C/C=C/C[C@@H](C)[C@H](O)[C@@](C)(O)C(=O)[C@@H](C)[C@H](O)[C@@H](C)C(=O)[C@@H](C)[C@H](O)[C@@H](C)/C=C/C(=O)O[C@@H]2[C@H](C)[C@H](CC1)O[C@]1(CC[C@H](C)[C@H](C[C@@H](C)O)O1)[C@H]2C [oligomycin]
H9c2 cardiac myoblasts [1]
  oxygen consumption: partly inhibited

## CCC/C=C/C/C=C/C=C/C=N/NN=O [triacsin C, reference compound]
[3]
  ApoO-induced increase of ACSL activity: significantly reversed

## antimycin
H9c2 cardiac myoblasts [1]
  oxygen consumption: almost completely inhibited
